From patent publication US8044018B2, “Reagents and methods for smooth muscle therapies” (Arizona Board of Regents, priority 2008, dated 2011)
Non-standard residues stand in square brackets, D forms with d. No end group written: not given here. *: point of attachment. FITC = O=C1OC2(c3ccc(O)cc3Oc3cc(O)ccc32)c2ccc(NC(=S)*)cc21; Fmoc = O=C(OCC1c2ccccc2-c2ccccc21)*; pS = N[C@@H](COP(=O)(O)O)C(=O)O; βAla = NCCC(=O)O

Tests used:
Mesangial cells [1] = assay: Wrinkle assay: mesangial cells transfected with GFP, WT HSP20 or S16A-HSP20, on silicone rubber substrata; type: cell-based; settings: dibutyryl cAMP 10 ΦM, 0-90 minutes
Procedure: The experiment was performed in the following fashion: Mesangial cells were transfected with vectors containing green fluorescent protein (GFP) alone, GFP fused to the 5′ end of the wild type cDNA for HSP20 (WT), or GFP fused to an HSP20 construct in which the PKA phosphorylation site was mutated to an alanine (S16A-HSP20) (MUT). The cells were plated on a silicone rubber substrata in the presence of serum for 48 hours. The plates were then placed on the stage of a Zeiss Inverted Fluorescence Microscope with DeltaVision image acquisition and deconvolution software (Applied Precision, Issaquah, Wash.). The DeltaVision software was configured to eight different cells (x and y axis) on each plate with 7 z-axis images taken at […] intervals. Fluorescent and phase contrast images were obtained such that the cells and silicone membrane were imaged in close succession. During the scanning process, the z-axis of each cell was monitored to assure that the imaging stacks were maintained at the appropriate level as the cells relaxed on the silicone membrane. Baseline images were acquired for one hour. The cells were then treated with […] dibutyryl cAMP (10 ΦM) for 0 minutes, 30 minutes, 60 minutes, or 90 minutes, and the results are illustrated in FIG. 1. […]

[2] = tested on: PKG transfected rat aortic smooth muscle cells; assay: Wrinkle assay: PKG transfected rat aortic smooth muscle cells on silicone substrata; type: cell-based; settings: 10 uM for 30 minutes
Procedure: Rat aortic smooth muscle cells that are multiply passaged or that stably express PKG were cultured on a silicone substrata in the presence of serum. The cells were imaged with phase contrast microscopy (10× magnification). […] To determine if the wrinkles were reversible, PKG transfected cells were treated with dibutyryl cAMP (10 uM) for 30 minutes.

Mesangial cells [3] = assay: Actin filament staining (rhodamine phalloidin) of transfected mesangial cells; type: cell-based; settings: 10 μM for 30 minutes; cells transfected with EGFP alone or S16A-HSP20
From the text: Transfected mesangial cells were fixed and the actin filaments were stained with fluorescent-labeled phalloidin.

[4] = tested on: bovine carotid artery smooth muscle; assay: Muscle bath: serotonin pre-contracted strips of bovine carotid artery, denuded of endothelium; settings: cumulative doses added every 10 minutes; n=5
Procedure: Transverse strips of bovine carotid artery smooth muscle, denuded of endothelium, were suspended in a muscle bath containing bicarbonate buffer (120 mM NaCl, 4.7 mM KCl, 1.0 mM MgSO4, 1.0 mM NaH2PO4, 10 mM glucose, 1.5 mM CaCl2, and 25 mM […], pH 7.4), equilibrated with 95% O2/5% CO2, at 37° C. at one gram of tension for 2 hours. The muscles were pre-contracted with serotonin ([…] for 10 minutes) and cumulative doses of FITC-phosphoHSP20-TAT, FITC-scrambled phosphoHSP20-TAT (FITC-NH2-β[…]*LWALGRPLA-COOH, open circles) (SEQ ID NO:305), or FITC-TAT (FITC-NH2-β[…], closed triangles) (SEQ ID NO:306) were added every 10 minutes. The force is depicted as a percentage of the maximal serotonin contraction (n=5, *=p<0.05 compared to 0 peptide added). Representative strips were fixed in 4% paraformaldehyde and examined under fluorescence microscopy (40× magnification).

[5] = tested on: Rat aortic smooth muscle cells; assay: LPA-induced actin fiber formation, phalloidin staining and confocal microscopy; type: cell-based
Procedure: Rat aortic smooth muscle cells were treated with lyophosphatidic acid (LPA) in the presence and absence of FITC-TAT-pHSP20 (FITC-NH2-β[…]*APLPGLK-COOH, 50 uM) (SEQ ID NO:307) Lysophosphatidic acid (LPA) is a substance which promotes actin fiber formation.
The cells were fixed and stained with phalloidin and images were obtained with confocal microscopy. […] These studies confirm that HSP20 has a direct role in modulating actin fiber formation.

Mesangial cells [6] = assay: Wrinkle assay: mesangial cells on silicone substrata treated with phosphopeptide; type: cell-based; settings: 50 μM peptide; plated 48 hours in serum; phase contrast microscopy; n=10
Procedure: Mesangial cells were plated on a silicone substrata in the presence of serum and after 48 hours the cells were treated with the FITC-TAT-HSP20 phosphopeptide (50 μM). The number of wrinkles under the cells was determined at the time points indicated using phase contrast microscopy (n=10, *=p<0.05 compared to time 0). Results of this Experiment are illustrated in FIG. 2.

[7] = tested on: Bovine aortic endothelial cells; assay: Focal adhesion disassembly, interference reflection microscopy; type: cell-based; settings: HSP20 peptides 10 uM for 30 minutes; serum starved one hour
Procedure: Bovine aortic endothelial cells were plated on glass coverslips (80K-100K cells) in DMEM plus 10% FBS over night (24 wells plate). The cells were serum starved (no serum) for one hour and incubated in the presence of the peptide analogues of HSP20 [NH2-βAYARRAAARQARAWLRRAS*APLPGLK-COOH-pHSP20 (10 uM) (SEQ ID NO:307) or scrambled analogues of HSP20 [NH2-βAYARRAAARQARAPRKS*LWALGRPLA-COOH-scHSP20 (10 uM)] (SEQ ID NO:308) for 30 minutes. The cells were fixed with 3% glutaraldehyde and the number of focal adhesions was detected with interference reflection microscopy. The Hep I peptide was used as a positive control. This peptide binds to the heparin binding site of thrombospondin in induces focal adhesion disassembly. […] The results are illustrated in FIG. 7.

A10 cells = assay: Serum-induced proliferation, cell counts; type: cell-based; settings: 50 μM in 10% FBS; 24 hours; serum starved 3 days beforehand
Procedure: A10 cells were serum starved for 3 days. The cells were then treated with media containing 10% fetal bovine serum, PTD-pHSP20 (NH2-βAYARRAAARQARAWLRRAS*APLPGLK-COOH (SEQ ID NO:307), or PTD-scrambled-pHSP20 (NH2-βAYARRAAARQARAPRKS*LWALGRPLA-COOH (SEQ ID NO:308) (50 μM). After 24 hours cell counts were performed. The number of cells per well in the serum starved plates averaged […] (+/−7.4) compared to 276+/−6.1 in wells containing 10% fetal bovine serum (FBS). In the presence of FBS, the phosphopeptide analogues of HSP20 containing a transduction domain inhibited of smooth muscle proliferation, 149+/−14.6 compared to transduction of the scrambled phosphopeptide analogue of HSP20 (242.3+/−15.3 cells/well). The results of these experiments are illustrated in FIG. 9.

rabbit aorta = assay: Muscle bath: rabbit aorta rings pre-contracted with norepinephrine, endothelium not denuded; settings: pre-contracted with norepinephrine 10^−7 M; for relaxation and inhibition of spasm: peptides retained the Fmoc moiety
Procedure: Rings of rabbit aorta in which the endothelium was not denuded, were suspended in a muscle bath containing bicarbonate buffer (120 mM NaCl, 4.7 mM KCl, 1.0 mM MgSO4, 1.0 mM NaH2PO4, 10 mM glucose, 1.5 mM CaCl2, and 25 mM […], pH 7.4), equilibrated with 95% O2/5% CO2, at 37° C. at one gram of tension for 2 hours. The rings were pre-contracted with norepinephrine (10^−7 M) and treated with RRRRRRApSAPLP (SEQ ID NO:309) or RRRRWLRRApSAPLP (SEQ ID NO:310). […] The peptides used were prepared by Fmoc-based peptide synthesis, and the peptides retained the Fmoc moiety at the amino terminus of the peptide.

Molecule: CCCC(=O)Nc1ncnc2c1ncn2[C@@H]1O[C@@H]2COP(=O)(O)O[C@H]2[C@H]1OC(=O)CCC [dibutyryl cAMP]
- wrinkles under the cells (relaxation) (Mesangial cells [1]; cells expressing S16A-HSP20 (MUT)): did not relax
- wrinkles under the cells (relaxation) (Mesangial cells [1]; control cells expressing GFP): relaxed over time
- wrinkle formation [2]: decrease in wrinkle formation
- central actin stress fibers (Mesangial cells [3]): loss of central actin stress fibers in EGFP but not S16A-HSP20 cells

Molecule: FITC-NH2-βAGGGGYGRKKRRQRRR ({FITC}-[βAla]GGGGYGRKKRRQRRR) [FITC-TAT, FITC-labelled TAT transduction domain alone, control]
- contractile force as percentage of the maximal serotonin contraction [4]: no significant effect

Molecule: FITC-NH2-βAGGGGYGRKKRRQRRRPRKS*LWALGRPLA-COOH ({FITC}-[βAla]GGGGYGRKKRRQRRRPRK[pS]LWALGRPLA-OH) [FITC-scrambled phosphoHSP20-TAT]
- contractile force as percentage of the maximal serotonin contraction [4]: no significant effect

Molecule: Lysophosphatidic acid [LPA, reference compound]
- actin stress fiber formation ([5]; LPA alone): robust actin stress fiber formation

Molecule: NH2-βAGGGGYGRKKRRQRRRWLRRAS*APLPGLK-COOH ([βAla]GGGGYGRKKRRQRRRWLRRA[pS]APLPGLK-OH; not fully specified (N-terminus); printed as NH2-βAGGGGYGRKKRRQRRRWLRRAS*APLPGLK-COOH; also: FITC label, position not given here) [FITC-TAT-HSP20]
- number of wrinkles under the cells (relaxation of the cells) (Mesangial cells [6]): time dependent loss of wrinkles
- contractile force as percentage of the maximal serotonin contraction [4]: dose dependent decrease
- central actin stress fibers ([5]; LPA in the presence of peptide, 50 uM): loss of central actin stress fibers

Molecule: NH2-βAYARRAAARQARAPRKS*LWALGRPLA-COOH (AYARRAAARQARAPRKSLWALGRPLA; HELM PEPTIDE1{[bAla].Y.A.R.R.A.A.A.R.Q.A.R.A.P.R.K.[O=C([C@H](COP(=O)(O)O)N[*:1])[*:2]].L.W.A.L.G.R.P.L.A}$$$$V2.0; SMILES CC(C)C[C@H](NC(=O)[C@H](C)NC(=O)[C@H](Cc1c[nH]c2ccccc12)NC(=O)[C@H](CC(C)C)NC(=O)[C@H](COP(=O)(O)O)NC(=O)[C@H](CCCCN)NC(=O)[C@H](CCCNC(=N)N)NC(=O)[C@@H]1CCCN1C(=O)[C@H](C)NC(=O)[C@H](CCCNC(=N)N)NC(=O)[C@H](C)NC(=O)[C@H](CCC(N)=O)NC(=O)[C@H](CCCNC(=N)N)NC(=O)[C@H](C)NC(=O)[C@H](C)NC(=O)[C@H](C)NC(=O)[C@H](CCCNC(=N)N)NC(=O)[C@H](CCCNC(=N)N)NC(=O)[C@H](C)NC(=O)[C@H](Cc1ccc(O)cc1)NC(=O)CCN)C(=O)NCC(=O)N[C@@H](CCCNC(=N)N)C(=O)N1CCC[C@H]1C(=O)N[C@@H](CC(C)C)C(=O)N[C@@H](C)C(=O)O) [PTD-scrambled-pHSP20, Scrambled analogue of the HSP20 phosphopeptide with PTD, control, reference compound]
- focal adhesion disassembly (number of focal adhesions) [7]: no significant effect
- number of cells per well (A10 cells): 242.3+/−15.3 cells/well

Molecule: RRRRRRApSAPLP (Fmoc-RRRRRRA[pS]APLP)
- speed and duration of relaxation compared with the longer peptides (rabbit aorta): relaxation was faster and the muscles remained in a relaxed state for longer
- relaxation and inhibition of spasm (rabbit aorta): rapid and complete relaxation and inhibition of spasm

Molecule: RRRRWLRRApSAPLP (Fmoc-RRRRWLRRA[pS]APLP)
- speed and duration of relaxation compared with the longer peptides (rabbit aorta): relaxation was faster and the muscles remained in a relaxed state for longer
- relaxation and inhibition of spasm (rabbit aorta): rapid and complete relaxation and inhibition of spasm
